{"source": "ChEMBL document CHEMBL1149009", "about": "“Antitumor agents, 79. Cytotoxic antileukemic alkaloids from Brucea antidysenterica” (1986)", "type_in_all_cases": "functional", "key": {"KB": {"system": "KB", "assay": "Cytotoxicity against human KB cells", "settings": "for EC50: read-out: ED50 (the source's name)"}, "P388 [1]": {"system": "P388", "assay": "In vivo antitumor activity against mouse P388 cells at 25 mg/kg after 3 days"}, "P388 [2]": {"system": "P388", "assay": "In vivo antitumor activity against mouse P388 cells at 200 mg/kg after 1 day"}}, "note": "Calls of active or inactive are those of the source. No cut-off for these calls is given here.", "data": [{"smiles": "O=c1ccc2nccc3c4ccccc4n1c23", "values": [{"measurement": "Activity", "setting": "KB", "value": "inactive"}]}, {"smiles": "COc1cccc2c1c1c(OC)cnc3ccc(=O)n2c31", "values": [{"measurement": "EC50", "setting": "KB", "value": 1, "unit": "µg/mL"}, {"measurement": "T/C", "setting": "P388 [1]", "value": 122, "unit": "%"}]}, {"smiles": "O=c1ccc2nccc3c4c(O)cccc4n1c23", "values": [{"measurement": "EC50", "setting": "KB", "value": "≤ 4", "unit": "µg/mL"}]}, {"smiles": "O=c1[nH]cc(F)c(=O)[nH]1", "note": "[FLUOROURACIL]", "values": [{"measurement": "T/C", "setting": "P388 [2]", "value": 135, "unit": "%"}]}]}
